Legend:
[1] = test system: haloperidol-induced stiffness; assay: Haloperidol-induced Parkinson's disease stiffness model in CD-1 mice (rearing and bar tests); type: in vivo
From the text: Parkinson's disease (PD) is a common class of degenerative disease of the nervous system with the main pathological changes including the loss of substantia nigra dopaminergic neurons and the decrease of dopamine transmitter content, leading to tremor at rest, muscle stiffness, […], postural reflex disorders and other clinical symptoms. Haloperidol, a dopamine D2 receptor blocker, can block the dopamine D2 receptor in the striatum, leading to mouse dystonic postures, namely, stiffness and hypokinesia. This model is a recognized animal model of Parkinson's syndrome. The ameliorative effect of a test substance on the stiffness symptom of Parkinson's disease induced by haloperidol in CD-1 mice was evaluated. 57 SPF-grade male CD-1 mice (4 weeks old at the time of purchase and 8 weeks old at the time of experiment) with the weight of about 40 g were randomly divided into 5 groups, namely, a vehicle group (n=11), a group of 1 mg/kg benzene sulfonate of Compound 40 (n=11), a group of 3 mg/kg benzene sulfonate of Compound 40 (n=12), a group of 10 mg/kg benzene sulfonate of Compound 40 (n=12), and a group of 30 mg/kg benzene sulfonate of Compound 40 (n=11). 1 mg/kg haloperidol was injected subcutaneously at an injection volume of 10 ml/kg. 30 minutes after the injection, Compound 40 at each dose was intragastrically infused at a volume of 10 ml/kg. At the 1st hour and the 4th hour after the administration was completed, the rearing and bar tests were performed respectively, and the number of standings and on-bar time of the mice were counted to evaluate the ameliorative effect of Compound 40 on the stiffness symptom of haloperidol-induced Parkinson's disease in CD-1 mice. […] Firstly, the acetate of Compound 22 at each dose was intragastrically infused at a volume of 10 ml/kg. After 30 min, 1 mg/kg haloperidol was injected subcutaneously at an injection volume of 10 ml/kg. At the 1st hour and the 4th hour after the administration was completed, the rearing and bar tests were performed respectively, and the number of standings and on-bar time of the mice were counted to evaluate the ameliorative effect of the acetates of Compound 22 on the stiffness symptom of haloperidol-induced Parkinson's disease in CD-1 mice. […] Firstly, Compound 27 at each dose was intragastrically infused at a volume of 10 ml/kg. After 30 min, 1 mg/kg haloperidol was injected subcutaneously at an injection volume of 10 ml/kg. At the 1st hour and the 4th hour after the administration was completed, the rearing and bar tests were performed respectively, and the number of standings and on-bar time of the mice were counted to evaluate the ameliorative effect of Compound 27 on the stiffness symptom of haloperidol-induced Parkinson's disease in CD-1 mice. The mice were subcutaneously injected with haloperidol at abdomen at a dose of 1 mg/kg, with the concentration of a working solution of 0.1 mg/ml and an injection volume of 10 ml/kg. At the 1st hour and the 4th hour after drug intervention, the mice were put into a white transparent plastic bucket with a diameter of 20 cm and a height of 21 cm. The mice were allowed to acclimate in the bucket for 5 min before starting video recording. The spontaneous activity behaviors of the mice within 10 minutes were recorded, whereby the number of standings was counted. The more the standings, the more frequent the spontaneous exploration activities of the mice, and the lower the degree of stiffness. At the time points of 1st and 4th hours after the rearing test was completed, bar test was carried out. The mice were placed on a long wooden bar with a diameter of […] and a height of 6 cm. The mice were let to hold the wooden bar with forelimbs, only with the buttocks or hind limbs on the ground. The timing was stopped when the hind limbs left the bench top or the fore limbs left the wooden bar, and the on-bar time of the mice was recorded. Each mouse was tested 3 times, and the maximum on-bar time and the average on-bar time were counted. […]

adenosine receptors A2A = biological target: T1, adenosine receptors A2A (Homo sapiens, UniProt P29274); assay: TR-FRET-based cAMP accumulation assay in hADORA2A-HEK293 cells; type: cell-based; conditions: NECA at EC80, hADORA2A-HEK293, read-out: A2AR activity (IC50)
T1 construct: expressed in transfected cells; host or cells: HEK293 (hADORA2A-HEK293)
T1 sequence (P29274 whole entry): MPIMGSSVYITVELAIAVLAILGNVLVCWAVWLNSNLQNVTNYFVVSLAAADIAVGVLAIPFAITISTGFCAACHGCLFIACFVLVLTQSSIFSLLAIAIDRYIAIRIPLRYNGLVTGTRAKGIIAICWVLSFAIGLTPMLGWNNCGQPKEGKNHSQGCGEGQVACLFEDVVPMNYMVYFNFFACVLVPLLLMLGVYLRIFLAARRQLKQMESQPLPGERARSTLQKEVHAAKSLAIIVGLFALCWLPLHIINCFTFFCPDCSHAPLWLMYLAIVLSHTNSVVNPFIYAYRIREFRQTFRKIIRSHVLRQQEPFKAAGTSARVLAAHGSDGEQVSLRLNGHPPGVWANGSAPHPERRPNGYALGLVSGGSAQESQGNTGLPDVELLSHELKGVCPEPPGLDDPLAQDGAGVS
Method: The inhibitory effects of the test compounds on the adenosine receptors A2A were evaluated by TR-FRET-based cAMP accumulation assay. The method included, in HEK293 cells (hADORA2A-HEK293) expressing A2AR, the production of cAMP stimulated by NECA and the inhibitory effect of A2A receptor antagonists on cAMP. All cells were cultured in a complete medium at 37° C. in the presence of 5% CO2. After being digested with trypsin, the cells were collected by centrifugation at 200 g for 5 minutes. The cells were resuspended in a fresh complete medium, and then the cell viability was counted by a trypan blue exclusion method. […] The cells were diluted with Hank's buffer solution containing HEPES (5 mM), BSA stabilizer (0.1%) and Rolipram (10 μM), then added to a 384-well white non-transparent plate (cells/well, 10 μl/well), and incubated with the test compound at an appropriate concentration (11 concentrations) for 20 minutes at room temperature. Then, the A2A receptor agonist NECA (final concentration=EC80, which was determined in the same experiment performed earlier) was added to the sample, and the sample was incubated again at 37° C. for 30 minutes.
An inhibition rate (%) was calculated according to the following formula, and an IC50 value was calculated from a concentration-inhibition (%) curve after log conversion.
A curve corresponding to the dose was fitted by using XLfit software and the IC50 was determined.

[2] = Pharmacokinetics of Compounds 27, 40, 22 and 41 in ICR mice in different modes of administration; type: in vivo; conditions: for Drug accumulation after consecutive oral administration: 30 mg/kg oral; for AUC(0-t) / Cmax / half-life: ICR; for AUC(0-t) / Cmax / half-life / clearance: mouse, in vivo; for clearance: IV, read-out: Cl—pred (converted)
From the text: WinNonlin® 6.4 was used as the calculation software for PK parameters.

[3] = Experiment II, 10 mg/kg intragastric, 1 h
[4] = Experiment II, 10 mg/kg intragastric, 4 h
[5] = Experiment III, 10 mg/kg intragastric, 1 h
[6] = Experiment III, 10 mg/kg intragastric, 4 h
[7] = po, 30 mg/kg, PO (after 7 consecutive days of administration), 30 mg/kg
[8] = PO (after 7 consecutive days of administration), 30 mg/kg
[9] = Experiment II, 3 mg/kg intragastric, 1 h
[10] = Experiment II, 3 mg/kg intragastric, 4 h
[11] = Experiment II, 30 mg/kg intragastric, 1 h
[12] = Experiment II, 30 mg/kg intragastric, 4 h
[13] = Experiment III, 3 mg/kg intragastric, 1 h
[14] = Experiment III, 3 mg/kg intragastric, 4 h
[15] = Experiment III, 30 mg/kg intragastric, 1 h
[16] = Experiment III, 30 mg/kg intragastric, 4 h

Row | Structure (SMILES) | Average on-bar time [1, 3] [s] | IC50 (adenosine receptors A2A) [nM] | Drug accumulation after consecutive oral administration [2] | AUC(0-t) ([2]; iv, 1 mg/kg) [ng·h/mL] | Cmax ([2]; iv, 1 mg/kg) [ng/mL] | half-life ([2]; iv, 1 mg/kg) [h] | AUC(0-t) ([2]; po, 5 mg/kg) [ng·h/mL] | Cmax ([2]; po, 5 mg/kg) [ng/mL] | half-life ([2]; po, 5 mg/kg) [h] | AUC(0-t) [2, 7] [ng·h/mL] | Cmax [2, 7] [ng/mL] | half-life [2, 7] [h] | AUC(0-t) ([2]; po, 30 mg/kg, PO (single)) [ng·h/mL] | Cmax ([2]; po, 30 mg/kg, PO (single)) [ng/mL] | half-life ([2]; po, 30 mg/kg, PO (single)) [h] | Cl—F—pred [2, 8] [mL/min/kg] | Cl—F—pred ([2]; PO (single), 30 mg/kg) [mL/min/kg] | Cl—F—pred ([2]; PO, 5 mg/kg) [mL/min/kg] | F ([2]; PO, 5 mg/kg) [%] | clearance ([2]; 1 mg/kg) [mL/min/kg] | also measured
1 | CCn1c(=O)c2c(nc(/C=C/c3ccc(OC)c(OC)c3)n2C)n(CC)c1=O [Istradefylline, reference compound] | 23.04 ± 4.88 |  |  |  |  |  |  |  |  |  |  |  |  |  |  |  |  |  |  |  | Maximum on-bar time [1, 3]: 30.38 ± 5.84 s; Average on-bar time [1, 4]: 24.67 ± 5.21 s; Maximum on-bar time [1, 4]: 35.75 ± 8.73 s; Average on-bar time [1, 5]: 23.71 ± 6.50 s; Maximum on-bar time [1, 5]: 40.75 ± 13.17 s; Average on-bar time [1, 6]: 34.08 ± 6.69 s; Maximum on-bar time [1, 6]: 54.75 ± 15.58 s
2 | Cn1nnc(-c2ccc(CCNc3nc(N)n4nc(-c5ccco5)nc4n3)cc2)n1 [Compound 40, N5-(4-(2-methyl-2H-tetrazol-5-yl)phenethyl)-2-(furan-2-yl)-[1,2,4]triazolo[1,5-a][1,3,5]triazine-5,7-diamine] |  | 9.66 | significant drug accumulation is not observed | 1540 | 1880 | 2.49 | 5540 | 2130 | 2.36 | 10600 | 2330 | 2.79 | 24400 | 14400 | 1.65 | 47 | 20.5 | 15 | 71.99 | 10.8 | 
3 | CC(=O)O.Nc1nc(NCCc2ccc(NC3COC3)cc2)nc2nc(-c3ccco3)nn12 [Acetate of Compound 22, 2-(furan-2-yl)-N5-(4-(oxetane-3-ylamino)phenethyl)-[1,2,4]triazolo[1,5-a][1,3,5]triazine-5,7-diamine acetate] | 41.88 ± 10.56 |  |  |  |  |  |  |  |  |  |  |  |  |  |  |  |  |  |  |  | Average on-bar time [1, 9]: 109.38 ± 13.74 s; Maximum on-bar time [1, 9]: 157.50 ± 18.11 s; Average on-bar time [1, 10]: 109.33 ± 26.37 s; Maximum on-bar time [1, 10]: 172.25 ± 58.28 s; Maximum on-bar time [1, 3]: 77.13 ± 25.78 s; Average on-bar time [1, 4]: 33.17 ± 6.69 s; Maximum on-bar time [1, 4]: 50.50 ± 12.24 s; Average on-bar time [1, 11]: 26.17 ± 3.88 s; Maximum on-bar time [1, 11]: 42.25 ± 8.18 s; Average on-bar time [1, 12]: 24.13 ± 4.28 s; Maximum on-bar time [1, 12]: 32.88 ± 6.21 s
4 | Nc1nc(NCCc2ccc(NC3COC3)cc2)nc2nc(-c3ccco3)nn12 [Compound 22, 2-(furan-2-yl)-N5-(4-(oxetan-3-ylamino)phenethyl)-[1,2,4]triazolo[1,5-a][1,3,5]triazine-5,7-diamine] |  | 7.07 | significant drug accumulation is not observed | 925 | 1690 | 0.94 | 3960 | 3510 | 2.74 | 15400 | 4800 | 3.04 | 18000 | 9650 | 2.22 | 32.5 | 27.8 | 21 | 85.72 | 18.2 | 
5 | COCCNc1ccc(CCNc2nc(N)n3nc(-c4ccco4)nc3n2)cc1 [Compound 27, 2-(furan-2-yl)-N5-(4-((2-methoxyethyl)amino)phenethyl)-[1,2,4]triazolo[1,5-a][1,3,5]triazine-5,7-diamine] |  | 10.6 | significant drug accumulation is not observed | 495 | 993 | 0.67 | 3100 | 1550 | 1.19 | 41700 | 17300 | 1.86 | 33600 | 14500 | 1.12 | 12 | 15.3 | 27.5 | 125.29 | 33.8 | Average on-bar time [1, 13]: 56.83 ± 11.67 s; Maximum on-bar time [1, 13]: 88.00 ± 22.07 s; Average on-bar time [1, 14]: 75.11 ± 19.52 s; Maximum on-bar time [1, 14]: 109.33 ± 28.68 s; Average on-bar time [1, 5]: 34.83 ± 8.63 s; Maximum on-bar time [1, 5]: 61.38 ± 15.59 s; Average on-bar time [1, 6]: 39.13 ± 14.33 s; Maximum on-bar time [1, 6]: 55.13 ± 18.32 s; Average on-bar time [1, 15]: 22.04 ± 4.19 s; Maximum on-bar time [1, 15]: 35.00 ± 8.59 s; Average on-bar time [1, 16]: 23.00 ± 4.46 s; Maximum on-bar time [1, 16]: 31.88 ± 5.75 s

Reference: patent publication US20230048888A1, “USE OF TRIAZOLOTRIAZINE DERIVATIVE IN TREATMENT OF DISEASES” (ZHEJIANG VIMGREEN PHARMACEUTICALS, LTD., priority 2019, published 2023)
